pEC50: −log10 of the molar value. Like-named read-outs stand apart in the source and are kept apart here.
How the values were obtained:
[1] = system: expanded OPCs; assay: cells; conditions: for viability at 0.1 µM / viability at 1 µM / viability at 10 µM: Rattus norvegicus, 72 h
Summary of the method: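 Expanded OPCs seeded at 10,000 cells/well in differentiation media, then exposed to NCC library compounds at 10, 1 and 0.1 µM (quadruplicate, 0.1% DMSO) for three days. Viability read as alamarBlue fluorescence (560/590 nm) after 4 h at 37 °C; tunicamycin 5 ng/ml served as toxicity control.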

[2] = system: acutely dissociated and purified rat OPCs; assay: Acute OL differentiation assay (MBP expression/cell, immunofluorescent image quantification); assay type: cell-based
Summary of the method: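 Oligodendrocyte precursor cells were enriched from P6-P7 Sprague–Dawley rat brains by immunopanning (RAN-2 and GalC depletion, O4 selection), plated at 5000 cells/well in serum-free, mitogen-free differentiation media on PDL/laminin 96-well view plates, centrifuged at 200×g, and pre-incubated 1–2 h before test compounds were added in quadruplicate. On DIV4, cells were fixed, stained for MBP and DAPI, imaged automatically, and MBP expression per cell was quantified.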

[3] = read-out: 0.1 µM (% DMSO), alamarBlue viability of expanded OPCs, compound at 0.1 µM, sheet All Tox data
[4] = read-out: 1 µM (% DMSO), alamarBlue viability of expanded OPCs, compound at 1 µM, sheet All Tox data
[5] = read-out: 10 µM (% DMSO), alamarBlue viability of expanded OPCs, compound at 10 µM, sheet All Tox data
[6] = Rattus norvegicus, 2 uM test compound; relative to quetiapine; sheet "All OLga data"; read-out: OL differentiation, 2 uM (% Quet)
[7] = Rattus norvegicus, 10 uM test compound; relative to quetiapine; sheet "All OLga data"; read-out: OL differentiation, 10 uM (% Quet)
[8] = read-out: 0.1 µM (% DMSO), alamarBlue viability, NCC library compound at 0.1 µM, sheet "All Tox data"
[9] = read-out: 1 µM (% DMSO), alamarBlue viability, NCC library compound at 1 µM, sheet "All Tox data"
[10] = read-out: 10 µM (% DMSO), alamarBlue viability, NCC library compound at 10 µM, sheet "All Tox data"
[11] = Rattus norvegicus, test compound at 2 uM; NCC library screen, sheet "All OLga data"; relative to quetiapine; read-out: 2 uM (% Quet)
[12] = Rattus norvegicus, test compound at 10 uM; NCC library screen, sheet "All OLga data"; relative to quetiapine; read-out: 10 uM (% Quet)
[13] = Rattus norvegicus, 0.4 uM test compound; relative to quetiapine; sheet "All OLga data"; read-out: OL differentiation, 0.4 uM (% Quet)
[14] = alamarBlue viability of expanded OPCs, compound at 0.1 µM, relative to DMSO control
[15] = alamarBlue viability of expanded OPCs, compound at 1 µM, relative to DMSO control
[16] = alamarBlue viability of expanded OPCs, compound at 10 µM, relative to DMSO control
[17] = Rattus norvegicus, test compound at 2 uM; MBP expression relative to quetiapine; NCC library screen, sheet "All OLga data"; read-out: 2 uM (% Quet)
[18] = ● = confirmed hit in this paper's assay
[19] = Rattus norvegicus, test compound at 0.4 uM; NCC library screen, sheet "All OLga data"; relative to quetiapine; read-out: 0.4 uM (% Quet)

Row | SMILES | viability at 0.1 µM [1, 8] | viability at 1 µM [1, 9] | viability at 10 µM [1, 10] | activation at 2 µM [2, 11] | activation at 10 µM [2, 12] | 0.1 µM (% DMSO) [1, 14] | 1 µM (% DMSO) [1, 15] | 10 µM (% DMSO) [1, 16] | other results
1 | c1cnc(N2CCN(Cc3ccc4c(c3)OCO4)CC2)nc1 [Piribedil] | – | – | – | – | – | – | – | – | viability at 0.1 µM [1, 3]: 88.5%; viability at 1 µM [1, 4]: 100%; viability at 10 µM [1, 5]: 103%; activation at 2 µM [2, 6]: 23.4%; activation at 10 µM [2, 7]: 29.9%
2 | CN1C(C(=O)Nc2ccccn2)=C(O)c2ccccc2S1(=O)=O [Piroxicam] | 91.3% | 88.3% | 87.1% | 12.1% | -2.1% | – | – | – | –
3 | CN1CCC(=C2c3ccccc3CCc3sccc32)CC1 [Pizotyline] | – | – | – | – | – | – | – | – | viability at 0.1 µM [1, 3]: 86.7%; viability at 1 µM [1, 4]: 65.3%; viability at 10 µM [1, 5]: 24.6%; activation at 0.4 µM [2, 13]: -8.8%; activation at 2 µM [2, 6]: -30.6%
4 | OC[C@H]1O[C@@H](Oc2cc(O)cc(/C=C/c3ccc(O)cc3)c2)[C@H](O)[C@@H](O)[C@@H]1O [Polydatin] | – | – | – | – | – | – | – | – | viability at 0.1 µM [1, 3]: 106%; viability at 1 µM [1, 4]: 110%; viability at 10 µM [1, 5]: 113%; activation at 2 µM [2, 6]: -15%; activation at 10 µM [2, 7]: -20.9%
5 | C[n+]1ccccc1/C=N/O [Pralidoxime] | 90.3% | 93.1% | 89.1% | -5% | -3.8% | – | – | – | –
6 | CC[C@H](C)C(=O)O[C@H]1C[C@H](O)C=C2C=C[C@H](C)[C@H](CC[C@@H](O)C[C@@H](O)CC(=O)O)[C@H]21 [Pravastatin] | – | – | – | – | – | – | – | – | viability at 0.1 µM [1, 3]: 113%; viability at 1 µM [1, 4]: 124%; viability at 10 µM [1, 5]: 151%; activation at 2 µM [2, 6]: 8.6%; activation at 10 µM [2, 7]: -87.5%
7 | O=C(C1CCCCC1)N1CC(=O)N2CCc3ccccc3C2C1 (stereo not shown) [Praziquantel] | – | – | – | 0.6% | -9.5% | 85.2 % DMSO | 85.1 % DMSO | 85.6 % DMSO | –
8 | CC(=O)OCC(=O)[C@@]1(O)CC[C@H]2[C@@H]3CCC4=CC(=O)C=C[C@]4(C)[C@H]3[C@@H](O)C[C@@]21C [Prednisolone acetate] | – | – | – | – | – | 112.3 % DMSO | 112.6 % DMSO | 109.9 % DMSO | activation at 2 µM [2, 17]: -3.3%; activation at 10 µM ([2]; Rattus norvegicus, test compound at 10 uM; MBP expression relative to quetiapine; NCC library screen, sheet "All OLga data"; read-out: 10 uM (% Quet)): -37.1%
9 | C[C@]12C=CC(=O)C=C1CC[C@@H]1[C@@H]2[C@@H](O)C[C@@]2(C)[C@H]1CC[C@]2(O)C(=O)COC(=O)CCC(=O)O [Prednisolone hemisuccinate] | 107% | 95% | 94.3% | 10.2% | 9.3% | – | – | – | –
10 | C[C@]12C=CC(=O)C=C1CC[C@@H]1[C@@H]2[C@@H](O)C[C@@]2(C)[C@H]1CC[C@]2(O)C(=O)CO [Prednisolone] | – | – | – | -21.9% | -15.7% | 117.5 % DMSO | 112.6 % DMSO | 109.9 % DMSO | –
11 | C[C@]12C=CC(=O)C=C1CC[C@@H]1[C@@H]2C(=O)C[C@@]2(C)[C@H]1CC[C@]2(O)C(=O)CO [Prednisone] | – | – | – | -4.5% | -47.4% | 88.8 % DMSO | 89.0 % DMSO | 86.2 % DMSO | –
12 | CCCNC(C)C(=O)Nc1ccccc1C (stereo not shown) [Prilocaine] | – | – | – | 2.7% | -1.2% | 89.7 % DMSO | 89.9 % DMSO | 89.6 % DMSO | –
13 | COc1cc(NC(C)CCCN)c2ncccc2c1 (stereo not shown) [Primaquine] | – | – | – | – | – | 90.1 % DMSO | 66.2 % DMSO | 32.4 % DMSO | activation at 0.4 µM ([2]; Rattus norvegicus; read-out: 0.4 uM (% Quet)): -10%; activation at 2 µM ([2]; Rattus norvegicus; read-out: 2 uM (% Quet)): -37.5%
14 | CCC1(c2ccccc2)C(=O)NCNC1=O [Primidone] | 86.9% | 89.5% | 82.3% | 1.4% | 15.6% | – | – | – | –
15 | CCCN(CCC)S(=O)(=O)c1ccc(C(=O)O)cc1 [Probenecid] | 89.6% | 94.3% | 91.5% | 1.7% | -6.4% | – | – | – | –
16 | CCN(CC)CCNC(=O)c1ccc(N)cc1 [Procainamide] | 106% | 111% | 120% | 0.4% | 19.7% | – | – | – | –
17 | CCN(CC)CCOC(=O)c1ccc(N)cc1 [Procaine] | 121% | 145% | 146% | -5.2% | 7.7% | – | – | – | –
18 | CNNCc1ccc(C(=O)NC(C)C)cc1 [Procarbazine] | – | – | – | – | – | – | – | – | viability at 0.1 µM [1, 3]: 82.3%; viability at 1 µM [1, 4]: 87.2%; viability at 10 µM [1, 5]: 96.6%; activation at 2 µM [2, 6]: 0.13%; activation at 10 µM [2, 7]: -31.6%
19 | CN1CCN(CCCN2c3ccccc3Sc3ccc(Cl)cc32)CC1 [Prochlorperazine, reference compound] | – | – | – | – | – | – | – | – | viability at 0.1 µM [1, 3]: 122%; viability at 1 µM [1, 4]: 107%; viability at 10 µM [1, 5]: 12.6%; activation at 0.4 µM [2, 13]: 110%; activation at 2 µM [2, 6]: -12.5%; hit in OL differentiation assay, MRF-TMC [2, 18]: ●
20 | OC(CCN1CCCC1)(c1ccccc1)C1CCCCC1 (stereo not shown) [Procyclidine] | 86.1% | 70.8% | 56.9% | 11.1% | – | – | – | – | activation at 0.4 µM [2, 19]: 12%
21 | CC(=O)[C@H]1CC[C@H]2[C@@H]3CCC4=CC(=O)CC[C@]4(C)[C@H]3CC[C@]12C [Progesterone] | – | – | – | – | – | – | – | – | viability at 0.1 µM [1, 3]: 88.2%; viability at 1 µM [1, 4]: 102%; viability at 10 µM [1, 5]: 113%; activation at 2 µM [2, 6]: 21.9%; activation at 10 µM [2, 7]: 23.3%
22 | CC(CN1c2ccccc2Sc2ccccc21)N(C)C (stereo not shown) [Promethazine] | – | – | – | – | – | 68.4 % DMSO | 33.2 % DMSO | 19.9 % DMSO | activation at 0.08 µM ([2]; Rattus norvegicus, test compound at 0.08 uM; NCC library screen, sheet "All OLga data"; relative to quetiapine; read-out: 0.08 uM (% Quet)): -26.4%; activation at 0.4 µM [2, 19]: -33.6%
23 | CCCNCC(O)COc1ccccc1C(=O)CCc1ccccc1 (stereo not shown) [Propafenone] | – | – | – | -3.3% | – | 76.8 % DMSO | 58.7 % DMSO | 29.5 % DMSO | activation at 0.4 µM [2, 19]: -15.2%
24 | CC(C)[N+](C)(CCOC(=O)C1c2ccccc2Oc2ccccc21)C(C)C [Propantheline] | 91.7% | 112% | 148% | 36.4% | 90.8% | – | – | – | –
25 | CC(C)c1cccc(C(C)C)c1O [Propofol] | – | – | – | – | – | – | – | – | 0.1 µM (% DMSO) ([1]; rat): 93.1 % DMSO; 1 µM (% DMSO) ([1]; rat): 85.9 % DMSO; 10 µM (% DMSO) ([1]; rat): 87.2 % DMSO; activation at 2 µM ([2]; Rattus norvegicus, read-out: 2 uM (% Quet)): -0.9%; activation at 10 µM ([2]; Rattus norvegicus, read-out: 10 uM (% Quet)): 0.36%
26 | CC(C)NCC(O)COc1cccc2ccccc12 (stereo not shown) [Propranolol] | – | – | – | – | – | 95.6 % DMSO | 79.5 % DMSO | 32.7 % DMSO | activation at 0.4 µM ([2]; Rattus norvegicus, test compound at 0.4 uM; MBP expression relative to quetiapine; NCC library screen, sheet "All OLga data"; read-out: 0.4 uM (% Quet)): 0.38%; activation at 2 µM [2, 17]: -14.5%
27 | CCCc1cc(=O)[nH]c(=S)[nH]1 [Propylthiouracil] | – | – | – | -0.9% | 11.7% | 90.3 % DMSO | 95.9 % DMSO | 90.8 % DMSO | –
28 | CCCOc1ccc(C(=O)OCCN(CC)CC)cc1N [Proxymetacaine, reference compound] | 128% | 179% | 163% | 75.8% | 97.5% | – | – | – | pEC50 ([2]; Rattus norvegicus; average EC50 for induction of OL differentiation from independent biological replicates, eight concentrations): 6.00; hit in OL differentiation assay, MRF-TMC [2, 18]: ●
29 | COc1cc(/C=C/c2ccc(O)cc2)cc(OC)c1 [Pterostilbene] | – | – | – | – | – | – | – | – | viability at 0.1 µM [1, 3]: 101%; viability at 1 µM [1, 4]: 62.5%; viability at 10 µM [1, 5]: 27.3%; activation at 0.4 µM [2, 13]: -5.7%; activation at 2 µM [2, 6]: -7.7%

From PMC5011342, “A high throughput drug screening assay to identify compounds that promote oligodendrocyte differentiation using acutely dissociated and purified oligodendrocyte precursor cells” (BMC Research Notes, 2016)
